Assay results taken from patent US10093630B2, “Pyrazole compounds and methods of making and using same” (ABIDE THERAPEUTICS, INC., priority 2014, dated 2018).
Read-outs that look alike come from different tables or passages of the source.

Legend:
Assay in all cases: In vitro competitive activity-based protein profiling (gel-based, FP-Rh or HT-01 probe)
Type in all cases: biochemical
ABHD6 = target: T1, ABHD6 (Mus musculus, UniProt Q8R2Y0); settings: for inhibition at 1 µM: 1 μM inhibitor, read-out: % Inhibition at 1 μM, C = ABHD6; for inhibition at 10 µM: 10 μM inhibitor, read-out: % Inhibition at 10 μM, C = ABHD6; for IC50: mouse brain membrane fraction or cell lysates, 30 min preincubation at 37° C., read-out: Mouse (IC50 value, nM) ABHD6
T1 construct: Proteomes (mouse brain membrane fraction or cell lysates); from tissue; host or cells: mouse brain membrane fraction (or cell lysates, not specified)
T1 sequence (Q8R2Y0 1-336): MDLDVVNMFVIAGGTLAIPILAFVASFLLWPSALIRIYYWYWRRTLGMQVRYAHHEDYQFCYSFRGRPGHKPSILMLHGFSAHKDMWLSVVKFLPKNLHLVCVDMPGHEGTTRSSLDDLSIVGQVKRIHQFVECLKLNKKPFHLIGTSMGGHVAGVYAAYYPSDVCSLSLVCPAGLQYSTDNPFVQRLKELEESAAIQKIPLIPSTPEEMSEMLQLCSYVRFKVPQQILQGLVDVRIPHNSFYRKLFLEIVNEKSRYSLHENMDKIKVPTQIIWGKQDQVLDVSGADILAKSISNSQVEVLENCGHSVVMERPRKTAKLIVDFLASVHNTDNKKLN
Outline: (§1)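 Read-out: fluorescent band intensity on SDS-PAGE gels, reporting remaining serine hydrolase activity. Before that, proteome (mouse brain membranes or cell lysates, 1.0 mg/mL) saw a range of inhibitor concentrations for 30 min at 37° C, followed by 30 min probe labelling (FP-Rh or HT-01).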

FAAH = target: T2, FAAH (Mus musculus, UniProt O08914); settings: for inhibition at 1 µM: 1 μM inhibitor, read-out: % Inhibition at 1 μM, B = FAAH; for inhibition at 10 µM: 10 μM inhibitor, read-out: % Inhibition at 10 μM, B = FAAH; for IC50: mouse brain membrane fraction or cell lysates, 30 min preincubation at 37° C., read-out: Mouse (IC50 value, nM) FAAH
T2 construct: Proteomes (mouse brain membrane fraction or cell lysates); from tissue; host or cells: mouse brain membrane fraction (or cell lysates, not specified)
T2 sequence (O08914 1-579): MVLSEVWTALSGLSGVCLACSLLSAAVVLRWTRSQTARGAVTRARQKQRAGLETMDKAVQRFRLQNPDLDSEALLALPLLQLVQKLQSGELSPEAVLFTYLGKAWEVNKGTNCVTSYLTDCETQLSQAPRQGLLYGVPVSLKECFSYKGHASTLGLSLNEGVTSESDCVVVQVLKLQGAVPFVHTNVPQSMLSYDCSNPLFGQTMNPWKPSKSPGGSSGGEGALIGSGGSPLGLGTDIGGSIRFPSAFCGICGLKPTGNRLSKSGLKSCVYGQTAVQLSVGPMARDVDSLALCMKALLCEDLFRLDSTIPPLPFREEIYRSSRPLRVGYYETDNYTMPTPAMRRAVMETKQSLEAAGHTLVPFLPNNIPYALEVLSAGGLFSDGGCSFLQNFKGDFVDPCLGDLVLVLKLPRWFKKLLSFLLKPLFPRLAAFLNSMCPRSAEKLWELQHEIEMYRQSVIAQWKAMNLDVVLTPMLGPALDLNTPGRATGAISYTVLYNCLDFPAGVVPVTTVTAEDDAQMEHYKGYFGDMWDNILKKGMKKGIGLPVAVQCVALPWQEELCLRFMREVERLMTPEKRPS
Outline: as §1

MAGL = target: T3, MAGL (Mus musculus, UniProt O35678); settings: for inhibition at 1 µM: 1 μM inhibitor; for inhibition at 10 µM: 10 μM inhibitor; for IC50: mouse brain membrane fraction or cell lysates, 30 min preincubation at 37° C., read-out: Mouse (IC50 value, nM) MAGL
T3 construct: Proteomes (mouse brain membrane fraction or cell lysates); from tissue; host or cells: mouse brain membrane fraction (or cell lysates, not specified)
T3 sequence (O35678 1-303): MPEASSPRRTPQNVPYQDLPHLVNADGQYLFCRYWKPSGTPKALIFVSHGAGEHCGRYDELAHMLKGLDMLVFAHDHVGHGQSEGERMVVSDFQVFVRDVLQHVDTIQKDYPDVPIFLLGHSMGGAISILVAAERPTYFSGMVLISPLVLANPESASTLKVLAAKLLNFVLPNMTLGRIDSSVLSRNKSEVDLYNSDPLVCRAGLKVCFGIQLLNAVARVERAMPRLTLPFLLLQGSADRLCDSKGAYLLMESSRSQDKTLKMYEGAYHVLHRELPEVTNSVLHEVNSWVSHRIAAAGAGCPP
Outline: as §1

PLA2G7 = target: T4, PLA2G7 (Mus musculus, UniProt Q60963); settings: for inhibition at 1 µM: 1 μM inhibitor, read-out: % Inhibition at 1 μM, D = PLA2G7; for inhibition at 10 µM: 10 μM inhibitor, read-out: % Inhibition at 10 μM, D = PLA2G7; for IC50: mouse brain membrane fraction or cell lysates, 30 min preincubation at 37° C.
T4 construct: Proteomes (mouse brain membrane fraction or cell lysates); from tissue; host or cells: mouse brain membrane fraction (or cell lysates, not specified)
T4 sequence (Q60963 22-440): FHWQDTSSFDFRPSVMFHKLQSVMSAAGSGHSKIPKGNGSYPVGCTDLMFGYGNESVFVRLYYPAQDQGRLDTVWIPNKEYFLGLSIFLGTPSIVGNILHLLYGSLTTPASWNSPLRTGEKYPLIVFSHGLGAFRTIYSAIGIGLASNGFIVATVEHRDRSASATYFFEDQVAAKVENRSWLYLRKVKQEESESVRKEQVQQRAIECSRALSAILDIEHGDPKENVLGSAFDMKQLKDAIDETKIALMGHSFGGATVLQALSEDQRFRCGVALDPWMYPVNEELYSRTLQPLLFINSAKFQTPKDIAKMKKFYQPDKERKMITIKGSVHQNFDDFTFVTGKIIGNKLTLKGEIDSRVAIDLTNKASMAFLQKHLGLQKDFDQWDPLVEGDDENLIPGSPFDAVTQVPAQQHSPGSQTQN
Outline: as §1

| SMILES | inhibition at 1 µM (ABHD6) [%] | inhibition at 10 µM (ABHD6) [%] | inhibition at 1 µM (FAAH) [%] | inhibition at 10 µM (FAAH) [%] | inhibition at 1 µM (MAGL) [%] | inhibition at 10 µM (MAGL) [%] | inhibition at 1 µM (PLA2G7) [%] | inhibition at 10 µM (PLA2G7) [%] | IC50 (ABHD6) [nM] | IC50 (FAAH) [nM] | IC50 (MAGL) [nM] | IC50 (PLA2G7) [nM] | inhibition at 1 µM (ABHD6; gel-based competitive ABPP) [%] | inhibition at 1 µM (FAAH; gel-based competitive ABPP) [%] | inhibition at 1 µM (MAGL; gel-based competitive ABPP) [%] | inhibition at 1 µM (PLA2G7; gel-based competitive ABPP) [%] | inhibition at 10 µM (ABHD6; gel-based competitive ABPP) [%] | inhibition at 10 µM (FAAH; gel-based competitive ABPP) [%] | inhibition at 10 µM (MAGL; gel-based competitive ABPP) [%] | inhibition at 10 µM (PLA2G7; gel-based competitive ABPP) [%] |
| --- | --- | --- | --- | --- | --- | --- | --- | --- | --- | --- | --- | --- | --- | --- | --- | --- | --- | --- | --- | --- |
| O=C(N1CCN(c2ccc(N3CCOCC3)cc2)CC1)n1cc(C(F)(F)F)cn1 [Example 238, (4-(4-Morpholinophenyl)piperazin-1-yl)(4-(trifluoromethyl)-1H-pyrazol-1-yl)methanone] | > 75 | > 75 | > 75 | > 75 | > 75 | > 75 | > 75 | > 75 |  |  |  |  |  |  |  |  |  |  |  |  |
| O=C(N1CCN(c2ccccc2N2CCCC2)CC1)n1cc(C(F)(F)F)cn1 [Example 239, (4-(2-(Pyrrolidin-1-yl)phenyl)piperazin-1-yl)(4-(trifluoromethyl)-1H-pyrazol-1-yl)methanone] | > 75 | > 75 | > 75 | > 75 | > 75 | > 75 | > 75 | > 75 |  |  |  |  |  |  |  |  |  |  |  |  |
| O=C(N1CCN(c2cccc(N3CCCC3)c2)CC1)n1cc(C(F)(F)F)cn1 [Example 240, (4-(3-(Pyrrolidin-1-yl)phenyl)piperazin-1-yl)(4-(trifluoromethyl)-1H-pyrazol-1-yl)methanone] | > 75 | > 75 | > 75 | > 75 | > 75 | > 75 | > 75 | > 75 |  |  |  |  |  |  |  |  |  |  |  |  |
| O=C(N1CCN(c2ccc(N3CCCC3)cc2)CC1)n1cc(C(F)(F)F)cn1 [Example 241, (4-(4-(Pyrrolidin-1-yl)phenyl)piperazin-1-yl)(4-(trifluoromethyl)-1H-pyrazol-1-yl)methanone] | > 75 | > 75 | > 75 | > 75 | > 75 | > 75 | > 75 | > 75 | < 100 | < 100 | < 100 | < 100 |  |  |  |  |  |  |  |  |
| CCN(Cc1cccc(N2CCOCC2)c1)C(=O)n1cc(C#N)cn1 [Example 242, 4-Cyano-N-ethyl-N-(3-morpholinobenzyl)-1H-pyrazole-1-carboxamide] | 25 to 75 |  | > 75 |  | > 75 |  | < 25 |  |  |  |  |  |  |  |  |  |  |  |  |  |
| CCN(Cc1cccc(Cl)c1)C(=O)n1cc(C#N)cn1 [Example 243, N-(3-chlorobenzyl)-4-cyano-N-ethyl-1H-pyrazole-1-carboxamide] | > 75 |  | > 75 |  | > 75 |  | < 25 |  | > 1000 | < 100 | 100 to 1000 | > 1000 |  |  |  |  |  |  |  |  |
| CCN(Cc1cccc(Cl)c1)C(=O)n1cc(C(F)(F)F)cn1 [Example 244, N-(3-Chlorobenzyl)-N-ethyl-4-(trifluoromethyl)-1H-pyrazole-1-carboxamide] | 25 to 75 |  | > 75 |  | 25 to 75 |  | < 25 |  | > 1000 | < 100 | > 1000 | > 1000 |  |  |  |  |  |  |  |  |
| CCN(Cc1cccc(Cl)c1)C(=O)n1cc(C)cn1 [Example 245, N-(3-chlorobenzyl)-N-ethyl-4-methyl-1H-pyrazole-1-carboxamide] |  |  |  |  |  |  |  |  |  |  |  |  | < 25 | < 25 | < 25 | < 25 |  |  |  |  |
| CCN(Cc1cccc(C)c1)C(=O)n1cc(C#N)cn1 [Example 246, 4-Cyano-N-ethyl-N-(3-methylbenzyl)-1H-pyrazole-1-carboxamide] |  |  |  |  |  |  |  |  | 100 to 1000 | < 100 | 100 to 1000 | > 1000 | > 75 | > 75 | > 75 | < 25 |  |  |  |  |
| CCN(Cc1cccc(C)c1)C(=O)n1cc(C(F)(F)F)cn1 [Example 247, N-Ethyl-N-(3-methylbenzyl)-4-(trifluoromethyl)-1H-pyrazole-1-carboxamide] |  |  |  |  |  |  |  |  | 100 to 1000 | 100 to 1000 | 100 to 1000 | > 1000 | 25 to 75 | > 75 | < 25 | < 25 | > 75 | > 75 | > 75 | < 25 |
| CCN(Cc1cccc(C)c1)C(=O)n1cc(C)cn1 [Example 248, N-ethyl-4-methyl-N-(3-methylbenzyl)-1H-pyrazole-1-carboxamide] |  |  |  |  |  |  |  |  |  |  |  |  | < 25 | < 25 | < 25 | < 25 |  |  |  |  |
| CCN(Cc1cccc(OC)c1)C(=O)n1cc(C#N)cn1 [Example 249, 4-Cyano-N-ethyl-N-(3-methoxybenzyl)-1H-pyrazole-1-carboxamide] |  |  |  |  |  |  |  |  | > 1000 | < 100 | 100 to 1000 |  | < 25 | > 75 | > 75 | < 25 | > 75 | > 75 | > 75 | 25 to 75 |
| CCN(Cc1cccc(OC)c1)C(=O)n1cc(C(F)(F)F)cn1 [Example 250, N-Ethyl-N-(3-methoxybenzyl)-4-(trifluoromethyl)-1H-pyrazole-1-carboxamide] |  |  |  |  |  |  |  |  | > 1000 | < 100 | > 1000 |  | 25 to 75 | > 75 | > 75 | < 25 | > 75 | > 75 | > 75 | > 75 |
| CCN(Cc1cccc(OC)c1)C(=O)n1cc(C)cn1 [Example 251, N-Ethyl-N-(3-methoxybenzyl)-4-methyl-1H-pyrazole-1-carboxamide] |  |  |  |  |  |  |  |  |  |  |  |  | < 25 | < 25 | < 25 | < 25 |  |  |  |  |
